The assay concerns the target T1, Solute carrier family 15 member 1 (Homo sapiens, UniProt P46059).
T1 sequence (P46059 whole entry): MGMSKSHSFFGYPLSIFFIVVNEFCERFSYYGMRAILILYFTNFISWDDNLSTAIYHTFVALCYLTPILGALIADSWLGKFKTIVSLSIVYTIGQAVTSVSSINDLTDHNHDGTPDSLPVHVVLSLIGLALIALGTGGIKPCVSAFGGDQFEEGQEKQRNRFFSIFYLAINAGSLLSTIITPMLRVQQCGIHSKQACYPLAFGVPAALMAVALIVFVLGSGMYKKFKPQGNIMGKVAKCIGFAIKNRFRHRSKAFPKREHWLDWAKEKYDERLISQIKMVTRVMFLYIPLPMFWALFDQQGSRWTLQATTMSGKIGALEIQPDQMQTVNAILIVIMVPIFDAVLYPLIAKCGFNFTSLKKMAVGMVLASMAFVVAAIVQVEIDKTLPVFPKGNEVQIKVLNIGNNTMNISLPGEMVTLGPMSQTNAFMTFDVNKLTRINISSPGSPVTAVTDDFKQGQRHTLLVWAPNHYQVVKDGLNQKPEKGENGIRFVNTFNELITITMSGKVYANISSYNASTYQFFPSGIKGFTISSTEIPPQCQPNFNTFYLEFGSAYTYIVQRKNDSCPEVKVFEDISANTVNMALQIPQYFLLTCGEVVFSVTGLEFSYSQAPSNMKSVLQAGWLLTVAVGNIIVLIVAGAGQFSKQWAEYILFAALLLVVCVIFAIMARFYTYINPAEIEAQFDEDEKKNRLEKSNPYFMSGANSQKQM
Put plainly: TP_TRANSPORTER: inhibition of Gly-Sar uptake in Caco-2 cells. The class given is functional, cell-based.

One may read the Ki as the equilibrium dissociation constant of an inhibitor or competing ligand from its target. A low value points to higher affinity. As to `CN(CC(=O)O)C(=O)[C@@H](N)CCC(=O)OCCOCn1cnc2c(=O)[nH]c(N)nc21`, the Ki was determined as 280 µM.
`Cc1cn(COC(=O)C(O)C[C@H](N)C(=O)N(C)CC(=O)O)c(=O)[nH]c1=O` (some centres not stated) showed a Ki of 210 µM. The Ki values of the last two compounds are within 1.5-fold of each other.

Source of the values: ChEMBL document CHEMBL2074474, “Prodrugs of purine and pyrimidine analogues for the intestinal di/tri-peptide transporter PepT1: affinity for hPepT1 in Caco-2 cells, drug release in aqueous media and in vitro metabolism” (J Control Release, 2003).
